Measured values taken from US11072582B2 (Epics Therapeutics, priority 2009, dated 2021).

Test system: adipocytes isolated from normal rat
Assay: Lipolysis assay in isolated adipocytes (isoprenaline-induced)
Assay type: cell-based
Conditions: 30 μM, FIG. 1
Description: Animals are killed by cervical dislocation and epididymal fat pads are removed and digested in collagenase buffer at 37° C./120 rpm for approximately 50 minutes.
After the pre-treatment, Isoprenaline (1 μM) is added to the adipocytes followed by 30 min incubation at 37° C./150 rpm. The reactions are put on ice and the buffer is assayed spectrophotometrically for the production of NADH^+ from glycerol breakdown in reactions catalyzed by glycerol kinase and glycero 1-3-phosphate dehydrogenase and/or Non Esterified Fatty Acid (NEFA). Each data point is investigated in triplicates in two independent experiments.

Cc1ccc(-c2ccc(C(=O)N3[C@@H](c4ccccc4Cl)CC[C@H]3C(=O)O)cc2)cc1 [Compound 5]
inhibition of isoprenaline-induced lipolysis: inhibit isoprenaline-induced lipolysis
